The values below come from paper PMC9631757 (2022).

For the test, the system named is CBZ aptamer (DNA, aptamer) CGAGGCTCTCGGGACGACGGGGCACGGGCCTCTGGGTCGGCATGGCCCGTCGTCCCGCCTTTAGGATTTACAG
The conditions noted are these: upper bound only; assay and buffer not stated.

SMILES strings stand for the structures.

`NC(=O)N1c2ccccc2C=Cc2ccccc21` yielded a dissociation constant Kd below 12 nM.
